# Columns and labels:
# Type in all cases: in vivo, Sprague-Dawley rats
# [1] = system: oxaliplatin-induced mechanical allodynia; assay: CIPN model (Example 5): mechanical allodynia, paw withdrawal threshold with von Frey filaments after oxaliplatin; conditions: rat, oxaliplatin 10 mg/kg i.p.; 30 mg/kg p.o. each day of von Frey testing, tested 2 hr post dose
# Protocol: The aim of this study was to investigate the effect of a single intraplantar treatment with Nanoparticles from Example 1 (NP1B) at the dose of 11 g/L, Nanoparticles from Example 2 (NP2B) at 53 g/L, Nanoparticles from Example 3 (NP20B) at 57 g/L, and Nanoparticles from Example 4 (NP20A) at 59 g/L, each in 20 μL of injection volume, on the mechanical allodynia (as assessed using von Frey) that occurs following systemic administration of oxaliplatin in the rat.
# Experimental subjects: Seventy-two (72) adult male Sprague-Dawley rats were used for this study. […]
# Static mechanical (tactile) allodynia evaluation: Measurement of paw withdrawal threshold (PWT) was achieved using calibrated (force; g) von-Frey monofilaments (Touch-Test Sensory Evaluator; Scientific Marketing Associates) applied to the plantar surface of the hind paw. Withdrawal threshold was determined by increasing and decreasing stimulus intensity and estimated using Dixon's up-down method. […]
# Baseline readings for latency to withdrawal (sec) were assessed on three consecutive days (Day −3, Day −2 and Day −1). […]
# Mechanical allodynia was subsequently re-assessed 2-3 times per week following injection, out to D26 post-oxaliplatin. […]
# [2] = system: oxaliplatin-induced mechanical allodynia; assay: CIPN model (Example 6): dose effect, paw withdrawal threshold with von Frey filaments, left (treated) vs right (vehicle) paw; conditions: 30 mg/kg p.o. each day of von Frey testing; on any of the test days
# Text: Animals were allowed to recover from transportation for at least one week before commencing experiments.
# Data is presented as mean±SEM.
# [3] = system: STZ-induced mechanical allodynia; assay: STZ-induced diabetic neuropathic pain study (Example 7): paw withdrawal threshold with von Frey filaments; conditions: 30 mg/kg p.o. 2 hr prior to each von Frey test
smiles,measurement,setting,value
CC(C)C[C@H](CN)CC(=O)O [Pregabalin],"PWT, allodynic response (positive control)",[1],rescued the allodynic response and recovered the PWT to the healthy baseline levels
same,PWT levels (both paws) compared to ‘Vehicle/Vehicle’ group (not neuropathic),[2],not significantly different from the ‘Vehicle/Vehicle’ group
same,PWT levels compared to ‘STZ/Vehicle’ group,[3],significantly different from the ‘STZ/Vehicle’ group on all days tested
